Data on two compounds can be found in publication doi:10.1101/2025.08.01.667454v3 (biorxiv, 2025).

For assay [1], the target named is T1, BAF60A^YLD+SWIB (Homo sapiens, UniProt Q96GM5). Put plainly: fluorescence polarization competition with PU.[…]. In kind it is binding. A general note: Fluorescence polarisation rises when a labelled molecule tumbles more slowly, as on binding a larger partner.
The target of assay [2] is T1, BAF60A^YLD+SWIB. The assay is described as follows: SPR steady state, amine-coupled protein. In kind it is binding.

For orientation: IC50 means the concentration that gives 50% inhibition. Low readings indicate higher potency, high ones lower potency. As usually defined, the Kd is the concentration at which binding is half-saturated. High values mean lower affinity, low ones higher affinity.

Consider `COC(=O)c1ccc(Cn2c(C)nc3cc4c(cc32)OCCO4)cc1` [PPSC-002], for which, at BAF60A^YLD+SWIB [1], the IC50 was determined as 33 µM. The compound further gave a Kd at BAF60A^YLD+SWIB [2] of 22.6 µM.
In the same order, the values of `CC1=C(C(=O)Nc2cccc(C)n2)C(c2cccc(Br)c2)C2=C(CCCC2=O)N1` (stereo not shown) [PPSC-001] are 9.13 µM and 8.89 µM.
